Source: patent publication US11458091B2, “Compositions and methods for the treatment of opioid overdose” (Opiant Pharmaceuticals, Inc., priority 2016, dated 2022)
Like-named read-outs stand apart in the source and are kept apart here.

Experiments:
[1] = for AUCextrap / Cmax/D / Lambda z: mean
[2] = cited from earlier work
[3] = in vivo; cited from earlier work
clinical = settings: human, in vivo; for concentration at 0 h: Hour 0.0; for concentration at 36 h: Hour 36.0; for concentration at 48 h: Hour 48.0; for concentration at 60 h: Hour 60.0; for concentration at 72 h: Hour 72.0; for concentration at 0.08 h: Hour 0.08; for concentration at 2 h: Hour 2.0; for concentration at 3 h: Hour 3.0; for Tmax: median; for concentration at 0.5 h: Hour 0.50; for concentration at 1 h: Hour 1.0; for concentration at 4 h: Hour 4.0
[4] = Intranasal naltrexone with Intravail, AUC (data not presented); assay type: in vivo; settings: effect of Intravail
Text: This important difference could not be predicted based on structure of the opioid antagonists, or the function of these moieties as opioid antagonists.

[5] = design: increase of total exposure (AUC): reference not given here; settings: intranasal formulation with […] Intravail, cited from earlier work
[6] = 3 mg plus […] Intravail IN, N = 14
[7] = 1.5 mg, Mean plasma concentration of nalmefene, 1.5 mg IM
[8] = 1.5 mg, Mean plasma concentration of nalmefene, 1.5 mg IN
[9] = 3 mg, Mean plasma concentration of nalmefene, 3 mg + […] Intravail IN
[10] = 3 mg, Mean plasma concentration of nalmefene, 3 mg IN

What does the source list for C=C1CC[C@@]2(O)[C@H]3Cc4ccc(O)c5c4[C@@]2(CCN3CC2CC2)[C@H]1O5 [Nalmefene, 17-cyclopropylmethyl-4,5α-epoxy-6-methylenemorphinan-3,14-diol]?
Mean plasma concentration of nalmefene ([1]; 1.5 mg IM, Hour 0.08): 0.457 ng/mL; Mean plasma concentration of nalmefene ([1]; 1.5 mg IM, Hour 0.17): 1.01 ng/mL; Mean plasma concentration of nalmefene ([1]; 1.5 mg IM, Hour 0.25): 1.43 ng/mL; Mean plasma concentration of nalmefene ([1]; 1.5 mg IM, Hour 0.33): 1.33 ng/mL; Mean plasma concentration of nalmefene ([1]; 1.5 mg IM, Hour 0.50): 1.19 ng/mL; Mean plasma concentration of nalmefene ([1]; 1.5 mg IM, Hour 0.75): 1.14 ng/mL; Mean plasma concentration of nalmefene ([1]; 1.5 mg IM, Hour 1.0): 1.08 ng/mL; Mean plasma concentration of nalmefene ([1]; 1.5 mg IM, Hour 2.0): 1.03 ng/mL; Mean plasma concentration of nalmefene ([1]; 1.5 mg IM, Hour 3.0): 0.878 ng/mL; Mean plasma concentration of nalmefene ([1]; 1.5 mg IM, Hour 4.0): 0.798 ng/mL; Mean plasma concentration of nalmefene ([1]; 1.5 mg IM, Hour 6.0): 0.688 ng/mL; Mean plasma concentration of nalmefene ([1]; 1.5 mg IM, Hour 8.0): 0.603 ng/mL; Mean plasma concentration of nalmefene ([1]; 1.5 mg IM, Hour 12.0): 0.470 ng/mL; Mean plasma concentration of nalmefene ([1]; 1.5 mg IM, Hour 16.0): 0.298 ng/mL; Mean plasma concentration of nalmefene ([1]; 1.5 mg IM, Hour 24.0): 0.128 ng/mL; Mean plasma concentration of nalmefene ([1]; 1.5 mg IM, Hour 30.0): 0.0740 ng/mL; AUCextrap ([1]; 1.5 mg IM, N = 13): 22.6%; Cmax/D ([1]; 1.5 mg IM, N = 13): 1.12 ng/mL/mg; Lambda z ([1]; 1.5 mg IM, N = 13): 0.094 h⁻¹; AUCextrap ([1]; 1.5 mg IN, N = 14): 30.6%; Cmax/D ([1]; 1.5 mg IN, N = 14): 0.646 ng/mL/mg; Lambda z ([1]; 1.5 mg IN, N = 14): 0.131 h⁻¹; AUCextrap ([1]; 3 mg IN, N = 14): 17.9%; Cmax/D ([1]; 3 mg IN, N = 14): 0.731 ng/mL/mg; Lambda z ([1]; 3 mg IN, N = 14): 0.101 h⁻¹; AUCextrap [1, 6]: 14.6%; Cmax/D [1, 6]: 1.65 ng/mL/mg; Lambda z [1, 6]: 0.117 h⁻¹; potency versus naloxone ([2]; milligram-per-milligram basis): equipotent on a milligram-per-milligram basis; clearance ([2]; versus naloxone): slower than naloxone; incidence of common adverse reactions (nausea, vomiting, tachycardia, hypertension, postoperative pain, fever, dizziness, headache, chills, hypotension, vasodilation) [3]: greater than 1%; half-life (clinical; 1.5 mg, 1.5 mg IN, mean, N = 14): 6.74 h; concentration at 0 h (clinical; [7]): 0 ng/mL; concentration at 36 h (clinical; [7]): 0 ng/mL; concentration at 48 h (clinical; [7]): 0 ng/mL; concentration at 60 h (clinical; [7]): 0 ng/mL; concentration at 72 h (clinical; [7]): 0 ng/mL; concentration at 0 h (clinical; [8]): 0 ng/mL; concentration at 0.08 h (clinical; [8]): 0 ng/mL; concentration at […] (clinical; 1.5 mg, Mean plasma concentration of nalmefene, 1.5 mg IN, Hour 0.75): 0.691 ng/mL; concentration at 2 h (clinical; [8]): 0.872 ng/mL; concentration at 3 h (clinical; [8]): 0.712 ng/mL; concentration at 12 h (clinical; 1.5 mg, Mean plasma concentration of nalmefene, 1.5 mg IN, Hour 12.0): 0.141 ng/mL; concentration at 30 h (clinical; 1.5 mg, Mean plasma concentration of nalmefene, 1.5 mg IN, Hour 30.0): 0 ng/mL; concentration at 36 h (clinical; [8]): 0 ng/mL; concentration at 48 h (clinical; [8]): 0 ng/mL; concentration at 60 h (clinical; [8]): 0 ng/mL; concentration at 72 h (clinical; [8]): 0 ng/mL; Tmax (clinical; 1.5 mg, 1.5 mg IN, N = 14): 2 h; AUC(0-t) (clinical; 3 mg, AUC0-t, 3 mg plus […] Intravail IN, mean, N = 14): 17.3 ng·h/mL; half-life (clinical; 3 mg, 3 mg IN, mean, N = 14): 7.84 h; half-life (clinical; 3 mg, 3 mg plus […] Intravail IN, mean, N = 14): 6.78 h; concentration at 0 h (clinical; [9]): 0 ng/mL; concentration at 0.08 h (clinical; [9]): 0.931 ng/mL; concentration at […] (clinical; 3 mg, Mean plasma concentration of nalmefene, 3 mg + […] Intravail IN, Hour 0.17): 3.69 ng/mL; concentration at […] (clinical; 3 mg, Mean plasma concentration of nalmefene, 3 mg + […] Intravail IN, Hour 0.25): 4.38 ng/mL; concentration at […] (clinical; 3 mg, Mean plasma concentration of nalmefene, 3 mg + […] Intravail IN, Hour 0.33): 3.53 ng/mL; concentration at 0.5 h (clinical; [9]): 3.2 ng/mL; concentration at 1 h (clinical; [9]): 2.54 ng/mL; concentration at 2 h (clinical; [9]): 1.99 ng/mL; concentration at 3 h (clinical; [9]): 1.57 ng/mL; concentration at 4 h (clinical; [9]): 1.32 ng/mL; concentration at 6 h (clinical; 3 mg, Mean plasma concentration of nalmefene, 3 mg + […] Intravail IN, Hour 6.0): 0.91 ng/mL; concentration at 36 h (clinical; [9]): 0.0149 ng/mL; concentration at 48 h (clinical; [9]): 0 ng/mL; concentration at 60 h (clinical; [9]): 0 ng/mL; concentration at 72 h (clinical; [9]): 0 ng/mL; concentration at 0 h (clinical; [10]): 0 ng/mL; concentration at 0.08 h (clinical; [10]): 0 ng/mL; concentration at […] (clinical; 3 mg, Mean plasma concentration of nalmefene, 3 mg IN, Hour 0.25): 0.392 ng/mL; concentration at 0.5 h (clinical; [10]): 1.01 ng/mL; concentration at […] (clinical; 3 mg, Mean plasma concentration of nalmefene, 3 mg IN, Hour 0.75): 1.4 ng/mL; concentration at 1 h (clinical; [10]): 1.68 ng/mL; concentration at 3 h (clinical; [10]): 1.53 ng/mL; concentration at 4 h (clinical; [10]): 1.22 ng/mL; concentration at 24 h (clinical; 3 mg, Mean plasma concentration of nalmefene, 3 mg IN, Hour 24.0): 0.125 ng/mL; concentration at 48 h (clinical; [10]): 0 ng/mL; concentration at 60 h (clinical; [10]): 0 ng/mL; concentration at 72 h (clinical; [10]): 0 ng/mL; Tmax (clinical; 3 mg, 3 mg IN, N = 14): 2 h

With O=C1CC[C@@]2(O)[C@H]3Cc4ccc(O)c5c4[C@@]2(CCN3CC2CC2)[C@H]1O5 [naltrexone, 17-(cyclopropylmethyl)-4,5α-epoxy-3,14-dihydroxymorphinan-6-one] as the compound, how does the AUC [4] read?
Its AUC is “increased significantly”.

Which “increase of maximum plasma concentration” value ([5]; in comparison to Imitrex nasal spray) does the source give for CNS(=O)(=O)Cc1ccc2[nH]cc(CCN(C)C)c2c1 [sumatriptan] here?
Its value is “almost four-fold”.

What about the Tmax [5] of the same compound?
Its Tmax is 8 to 10 min.

And the “increase of total exposure (AUC)” value [5]?
Its value is 32%.
